2 compounds from patent US20060100260A1, “Substituted pyrazoline carboxanilides for use as pesticides” (priority 2002, published 2006) can be followed below.

Data set [1] is described as follows: logP determination by HPLC (EEC Directive 79/831 Annex V.A8). In kind it is physicochemical. The note with it: reversed-phase HPLC column (C 18), pH 2.3, reversed-phase column (C 18), 43° C. Here is the method:
The logP values given in the Preparation Examples are determined in accordance with EEC Directive 79/831 Annex V.A8 by HPLC (High Performance Liquid Chromatography) using a reversed-phase column (C 18). Temperature: 43° C.
The determination is carried out in the acidic range at pH 2.3 using the mobile phases 0.1% aqueous phosphoric acid and acetonitrile; linear gradient from 10% acetonitrile to 90% acetonitrile.
Calibration is carried out using unbranched alkan-2-ones (having 3 to 16 carbon atoms) with known logP values (determination of the logP values by the retention times using linear interpolation between two successive alkanones).

In data set [2] the test system is larvae of the mustard beetle (Phaedon cochleariae). Description: Phaedon larvae test. In kind it is in vivo. The conditions noted are these: active compound concentration 100 ppm; after 7 days; dipped cabbage leaves. The procedure: (§1) [table] To produce a suitable preparation of active compound, 1 part by weight of active compound is mixed with the stated amounts of solvent and emulsifier, and the concentrate is diluted with emulsifier-containing water to the desired concentration. Cabbage leaves (Brassica oleracea) are treated by being dipped into the preparation of active compound of the desired concentration and are populated with larvae of the mustard beetle (Phaedon cochleariae) while the leaves are still moist. After the desired period of time, the kill in % is determined. 100% means that all beetle larvae have been killed; 0% means that none of the beetle larvae have been killed.

Data set [3] concerns caterpillars of the diamondback moth (Plutella xylostella). Description: Plutella test. In kind it is in vivo. The note with it: active compound concentration 100 ppm; after 7 days; dipped cabbage leaves. The procedure: as §1, with “caterpillars” for “larvae”, “diamondback moth (Plutella xylostella)” for “mustard beetle (Phaedon cochleariae)”, “caterpillars” for “beetle larvae”

In data set [4] the test system is caterpillars of the armyworm (Spodoptera frugiperda). Description: Spodoptera frugiperda test. The note with it: active compound concentration 100 ppm; after 7 days; dipped cabbage leaves. Format: in vivo. The procedure: as §1, with “caterpillars” for “larvae”, “armyworm (Spodoptera frugiperda)” for “mustard beetle (Phaedon cochleariae)”, “caterpillars” for “beetle larvae”

A further data set concerns Heliothis armigera. Description: Heliothis armigera test. The conditions noted are these: active compound concentration 100 ppm; after 7 days; dipped soya bean shoots. Format: in vivo.

As usually defined, the chromatographic logP is lipophilicity estimated from chromatographic retention. In data set [1], `N#CCN(C(=O)N1CC(n2cc(Cl)cn2)C(c2ccc(Cl)cc2)=N1)c1ccc(Cl)cc1` (stereo not drawn) [Example 1, 3-(4-chlorophenyl)-4-(4-chloropyrazol-1-yl)-4,5-dihydro-1-pyrazolecarboxylic acid (N-cyanomethyl)-4-chloroanilide] showed a chromatographic logP of 3.94. In addition, the kill (in data set [2]; in data set [3]; in data set [4]; in the data set on Heliothis armigera) was 100% throughout.

As to `Clc1ccc(C2=NNCC2n2cc(Cl)cn2)cc1` (stereo not drawn) [Example (II-1), 3-(4-chlorophenyl)-4-(4-chloropyrazol-1-yl)-4,5-dihydro-1H-pyrazole], in data set [1], the chromatographic logP stood at 2.64.
